Experimental findings from patent US8080517B2, “Cell-permeable peptide inhibitors of the JNK signal transduction pathway” (Xigen SA, priority 2005, dated 2011) are described below.

In assay [1] the test system is cortical neuronal culture. Nature of the assay: LDH release from cortical neuronal cultures following NMDA stimulation. The following applies: 5 μM pre-treatment 30 min, 100 μM NMDA, 12 h. The assay is classed as cell-based, rat. The protocol:
The neuroprotective effect of the D-TAT-IB (generic)(s)/D-JNKI1 peptide (SEQ ID NO: 12) was evaluated in sister cultures pre-treated for 30 min with the indicated concentrations of peptides or MK-801 before continuous exposure to 100 μM NMDA.
Cortical neuronal culture. We dissected small pieces of cortex from the brains of two day old rat pups, incubated them with 200 units of papain for 30 min at 34° C., and then plated the neurons at densities of approximately 1×10^6 cells/plate on dishes pre-coated with 100 μg/ml poly-D-lysine. The plating medium consisted of B27/Neurobasal (Life Technologies, Gaithersburg, Md.) supplemented with 0.5 mM glutamine, 100 U/ml penicillin and 100 ug/ml streptomycin.
Lactate dehydrogenate (LDH) cytotoxicity assay. LDH released into the bathing medium 12, 24 and 48 h after NMDA administration was measured using the Cytotox 96 non-radioactive cytotoxicity assay kit (Promega, Wis.) (see FIG. 5).
For orientation: LDH leaks from cells whose membrane has failed.

The nature of assay [2]: Focal cerebral ischaemia, transient MCAO model, infarct volume. It is filed as in vivo, male ICR-CD1 mice. The conditions noted are these: i.v. administration, FIG. 4. An excerpt:
Evaluation of neuroprotection by inventive chimeric peptides after iv administration against focal cerebral ischaemia, in a transient MCAO model (see FIG. 4).
Transient ischemia in adult mice. Using male ICR-CD1 mice (6 weeks old; 18-37 g; Harlan), we provoked ischemia by introducing a filament from the common carotid artery into the internal carotid and advancing it into the arterial circle, thereby occluding the middle cerebral artery. We measured regional cerebral blood flow by laser Doppler flowmetry, with a probe fixed on the skull throughout the ischemia until 10 min after reperfusion. Rectal temperature was measured and maintained at 37° C. The mice were killed 48 h after reperfusion. Serial cryostat sections 20 μm thick were traced using a computer-microscope system equipped with the Neurolucida program (MicroBrightField) and the volumes of the ischemic area and of the whole brain were calculated (blinded) with the Neuroexplorer program. XG−102 0.3=0.3 mg/kg,XG−102 1=1 mg/kg, XG−102 5=5 mg/kg
The infarct volume sizes (mm^3) after bolus iv administration of placebo and XG-102 0.3, […] 6 hours after reperfusion (30 minutes clamp) in an adult mice model were as follows.

Assay [3] concerns endogenous JNK activity in HepG2 cells. Nature of the assay: Inhibition of endogenous IL-1β-induced JNK activity in HepG2 cells, AlphaScreen all-in one well approach. It is filed as cell-based. The conditions noted are these: FIG. 6 panel d. The protocol: HepG2 cells were seeded at 3,000 cells/well the day prior the experiment. Then, increasing concentrations of either interleukin-1β [IL-1β(▪)] or tumor necrosis factor α[TNFα(●)] (a) were added to activate JNK for 30 minutes. Cells were lysed in 20 mM Hepes, 0.5% Tween pH 7.4 and processed for AlphaScreen JNK. (b) Z′ for the JNK activity induced by 10 ng/ml IL-1β and measured in 384 wells/plate (n=96). (c) Inhibition of endogenous IL-1β-induced JNK activity with chemical JNK inhibitors [staurosporin (∘) and SP600125 (●)]. (d) Effect of peptidic inhibitors L-TAT-IB1(s) according to SEQ ID NO: 9 [here abbreviated as L-JNKi (▪)) and D-TAT-IB1(s) according to SEQ ID NO: 11 (here abbreviated as D-JNKi (□)) and JBDs (●) (corresponds to L-JNKI without the TAT sequence)] on […] dependent JNK activity. All panels are representative of three independent experiments (n=3).
Methods: Alphascreen Kinase Assay
Principle: AlphaScreen is a non-radioactive bead-based technology used to study biomolecular interactions in a microplate format. The acronym ALPHA stands for Amplified Luminescence Proximity Homogenous Assay. […]
Kinase reagents (B-GST-cJun, anti P-cJun antibody and active JNKS) were first diluted in kinase buffer (20 mM Tris-HCl pH 7.6, 10 mM MgCl2, 1 mM DTT, 100 μM Na3VO4, 0.01% Tween-20) and added to wells (15 μl). […] AlphaScreen signal was analyzed directly on the Fusion or En Vision apparatus.

Assay [4] can be described thus: Focal cerebral ischemia, permanent MCAO model, lesion volume. The assay is classed as in vivo, 12-days-old rats. An excerpt:
Focal cerebral ischemia was induced in 12-days-old rats. Pups were anesthetized in an induction chamber with 2% isoflurane and during the operation anaesthesia was maintained using a mask under 2% isoflurane. MCAO was induced by electrocoagulating a main branch of the middle cerebral artery (MCA). Rats were placed on the right side, and an oblique dermal incision was made between the ear and eye. After excision of the temporal muscle, the cranial bone was removed from the frontal suture to a level below the zygomatic arch. […] The cranial skin incision was then closed. Rat pups were then placed in an incubator maintained at 37° C. until they awoke, and were then transferred to their mother.
6 hours later an inventive chimeric D-TAT-IB1(s) peptide according to SEQ ID NO: 11 was injected intraperitoneally. 24 hours after the coagulation, the rats were anesthetized with chloral hydrate and perfused through the ascending aorta with 4% paraformaldehyde in PBS. Brains were then removed and kept for 2 hours in the same fixative solution, and placed in a gradient of 30% sucrose in PBS for about 15 hours at 4° C. Brains were frozen in isopentane (−40° C.) and stored at −20° C. Coronal cryostat sections of 50 µm were collected on glass slides. The sections were stained with cresyl violet. Each tenth section was analyzed and the total volume of the lesion was calculated using the Neuroleucida programme. In the control group A, the mean lesion volume was 21.47 mm^3. […] A significant statistic difference is observed between group A and groups C, E and F (one-tailed t-test, p=0.030, p=0.002, p=0.001 respectively).

Where a SMILES comes first, the peptide text is derived from it. [ ]: non-standard residue; d: D form.

For the molecule `CC(C)C[C@@H](NC(=O)[C@@H](Cc1ccccc1)NC(=O)[C@H]1CCCN1C(=O)[C@@H](CCC(N)=O)NC(=O)[C@H](NC(=O)[C@H]1CCCN1C(=O)[C@@H](CCCNC(=N)N)NC(=O)[C@@H](CO)NC(=O)[C@@H](CCC(N)=O)NC(=O)[C@H](N)CC(=O)O)C(C)C)C(=O)N[C@H](CC(N)=O)C(=O)N[C@H](CC(C)C)C(=O)N[C@@H](C(=O)N[C@@H](C(=O)N1CCC[C@@H]1C(=O)N[C@H](CCCNC(=N)N)C(=O)N[C@H](CCCCN)C(=O)N1CCC[C@@H]1C(=O)N[C@H](CCCNC(=N)N)C(=O)N1CCC[C@@H]1C(=O)N1CCC[C@@H]1C(=O)N[C@H](CCCNC(=N)N)C(=O)N[C@H](CCCNC(=N)N)C(=O)N[C@H](CCCNC(=N)N)C(=O)N[C@H](CCC(N)=O)C(=O)N[C@H](CCCNC(=N)N)C(=O)N[C@H](CCCNC(=N)N)C(=O)N[C@H](CCCCN)C(=O)N[C@H](CCCCN)C(=O)N[C@H](CCCNC(=N)N)C(=O)NCC(=O)O)[C@H](C)O)[C@H](C)O` [D-TAT-IB1(s)] (H-[dD][dQ][dS][dR][dP][dV][dQ][dP][dF][dL][dN][dL][dT][dT][dP][dR][dK][dP][dR][dP][dP][dR][dR][dR][dQ][dR][dR][dK][dK][dR]G-OH), in assay [1], the “degenerative changes due to NMDA exposure (LDH release above controls)” value was “completely inhibited”; the “morphological appearance, number and distribution of the neurons” value is “indistinguishable from the controls”. For the same molecule, the “neuroprotection (infarct volumes)” value in assay [2] is “provides efficient neuroprotection”. Further, the “inhibition of endogenous JNK activity” value in assay [3] is on record as “effectively inhibits JNK activity, even better than L-TAT-IB1(s)”. Further, the “mean lesion volume of all treated groups versus control group” value in assay [4] (control group mean 21.47 mm^3) is “lower mean than the control group”. The “cerebral protection (lesion volume) compared to saline group” value in assay [4] (doses 1 mg/kg, 0.003 mg/kg and 0.0003) was “not large enough to reach a significant difference”. Also, the “dose of best protection” value in assay [4] (i.p. 6 hours after MCAO) is reported as 0.03 mg/kg. Moreover, the “cerebral protection (lesion volume)” value in assay [4] (i.p. 6 hours after MCAO, doses 11 mg/kg, 3 mg/kg, 0.3 mg/kg and 0.03 mg/kg, 24 hours after coagulation) is listed as “contributes to a cerebral protection”.
